In publication PMC5672024, “Selective Glucocorticoid Receptor Properties of GSK866 Analogs with Cysteine Reactive Warheads” (Frontiers in Immunology, 2017):

Key:
[1] = tested on: GR Ser211 phosphorylation; assay: Western blot of GR Ser211 phosphorylation; assay type: cell-based; conditions: for concentration dependence of GR Ser211 phosphorylation: HaCat cells, 6 h, 10, 100 or 1,000 nM
Protocol: Whole cell extracts contain multiple protease inhibitors (Complete Mini®, Roche) and Halt phosphatase inhibitor cocktail (Thermoscientific). Soluble protein extracts were obtained after three times freeze and thaw cycles and centrifugation at […] for 15 min at 4°C. Samples were separated by sodium dodecyl sulfate-polyacrylamidegel electrophoresis (SDS-PAGE) and transferred onto nitrocellulose membranes (Hybond C, Amersham) following standard protocols. After blocking, membranes were incubated overnight at 4°C with the primary antibodies: anti-GR (sc-8992, SantaCruz Biotechnology), anti-phospho-GR Ser211 (4161, Cell Signalling) and anti-Actin (A3853, Sigma-Aldrich) followed by dye-conjugated secondary antibodies (LI-COR® Biosciences). Bound complexes were detected with the Odyssey® infrared imaging system (LI-COR®) and quantified by Image J software.
Figure 5 Selective glucocorticoid receptor agonist GSK866 and its analogs UAMC-1217, UAMC-1218 trigger glucocorticoid receptor (GR) Ser211 phosphorylation. (A) Western detection of expression levels of Actin, GR, and GR Ser S211 phosphorylation in HaCat cells following 6 h treatment with 1 µM Dex, UAMC-1217, UAMC-1218, or GSK866. (B) Bar plot representation of Western blot intensities of Actin, GR, and GR Ser S211 phosphorylation observed in panel A, as quantified by Image J. (C) Western detection of expression levels of Actin, GR expression, and Ser S211 phosphorylation in HaCat cells following 6 h treatment with, respectively, 10, 100, or 1,000 nM Dex or UAMC-1217. (D) Bar plot representation of Western blot intensities of Actin, GR, and GR Ser S211 phosphorylation observed in panel (C), as quantified by free Image J software.

[2] = tested on: GR; parameters: method as in PMID 27612544; conditions: ref [14], cited from earlier work; for % inhibition of GR ligand binding: 1.5 nM [3H]-dexamethasone, 1 µM ligand
[3] = tested on: GR; assay: Cell-based GR ligand-binding competition assay with [3H]-dexamethasone; conditions: from IC50 values of ligand displacement assays; ref [14]
[4] = tested on: GR transactivation, p(GRE)2-50-luc reporter in HaCat cells; assay: p(GRE)2-50-luc reporter gene assay (GR transactivation); assay type: cell-based; conditions: 6 h, 10 nM
Protocol: In order to compare transactivation and transrepression potencies of the different synthesized GSK866 analogs, we performed GRE- and NFκB-luciferase-dependent reporter gene studies in stable transfected cell lines, as previously described ([3], [8]). HaCat cells expressing p(GRE)2 50-Luc and L929sA cells expressing p(GRE)250-Luc or p(NFκB)350-Luc were cultured in DMEM medium with 1% L-glutamine, supplemented with 10% feral bovine serum (FBS), 100 µg/ml streptomycin, and 100 IU/mL penicillin in a humidified 5% CO2 atmosphere. Cells were passaged every 2 days at a dilution of 1:6. Reporter gene cells were plated at a density of 0.5 × 10^5 cells/well in 24 well plates and grown overnight. p(GRE)250-Luc-dependent reporter gene cells were treated with solvent (DMSO) or compound (100 fM, 1 nM, 10 nM, 100 nM, and 1 µM) for 6 h, whereas in case of p(NFκB)350-Luc, TNF (2,500 IU/mL) was added 2 h following compound treatment. After incubation with the compounds, medium was removed and cells were washed twice with PBS followed by adding 100 µl of 1× lysis buffer (0.2 M K2HPO4, 0.2 M KH2PO4, Triton X-100, pH 7.6). 25 µl of lysate was assayed for luciferase activity by adding 50 µl of luciferase assay substrate (1 mM luciferin or luciferin salt, 3 mM ATP, and 15 mM MgSO4 in 30 mM HEPES buffer, pH 7.8) followed by 10 s mixing and measuring 1 s bioluminescence using an Envision multilabel reader (Perkin Elmer).
Figure 3 Selective glucocorticoid receptor agonist GSK866 analogs UAMC-1217, UAMC-1218 but not UAMC-1158 and UAMC-1159 elicit selective glucocorticoid receptor-transactivation and NFκB-transrepression properties. Glucocorticoid response element (GRE)- and NFκB-luciferase-dependent reporter gene assays were performed in L929sA and HaCat reporter cells which were stably transfected with, respectively, p(NFκB)3-50luc or p(GRE)2-50-luc constructs. For p(GRE)2-50-luc reporter assays, cells were solvent-treated or induced with different concentrations of Dex (A), Dex-mesylate (Dex-Mes) (A), SEGRA GSK866 (C) or analogs UAMC-1158 (D), UAMC-1159 (E), UAMC-1217 (F), and UAMC-1218 (G) as indicated for a total exposure time of 6 h, whereas cells were cotreated for TNF (2,500 IU/ml) in the last 4 h for p(NFkB)3-50luc reporter assays (B–G). Corresponding lysates were assayed for luciferase activities and normalized for protein content as described in the Section “Materials and Methods.” Promoter activities are expressed as relative induction factor (± standard deviation) i.e., the ratio of expression levels recorded either at induced and non-induced conditions, with the latter taken to be 1.

[5] = tested on: GILZ/TSC22D3 mRNA; assay: qPCR of GR target gene GILZ/TSC22D3 in HaCat cells; assay type: cell-based; conditions: 6 h, 10, 100 or 1,000 nM, compared with Dex
Protocol: qPCR was performed using the GoTaq qPCR Master Mix (Promega) according to manufacturer’s instructions. In short, a 25 µl reaction volume mix per sample was prepared containing 12.5 µl GoTaq qPCR Master Mix, 0.4 µM forward and reverse primer, and nuclease-free water. We used the Rotor-Gene Q qPCR machine of Qiagen with following PCR program: 95°C for 2 min, 40 cycli denaturation (95°C, 15 s) and annealing/extension (60°C, 30 s), and dissociation (60–95°C). […] Each sample was run in triplicate. The median value of the triplicates were taken to calculate the deltaCt-values using GAPDH as the normalization gene.
(A) QPCR assays was performed against the GR target gene GILZ/TSC22D3 in HaCat cells treated for 6 h with different concentrations 10, 100 or 1,000 nM Dex or UAMC-1217. Bar graph plot represents the relative mRNA levels of GILZ/TSC22D3 upon Dex or UAMC-1217 treatment. (B) QPCR assays was performed against the TNF-inducible inflammatory gene interleukin-6 (IL6) in HaCat cells treated for 6 h with different concentrations 10, 100, or 1,000 nM Dex or UAMC-1217 either or not, cotreated for the last 4 h with TNF (2,500 IU/ml) as indicated in panel (B). […] Significant mean differences versus control setups panel (A) or TNF treated setup panel (B) are marked as *** (P < 0.001), **(P < 0.01), * (P < 0.05) and were determined by one-way ANOVA (Dunnetts Posttest).

SMILES | concentration dependence of GR Ser211 phosphorylation [1] | % inhibition of GR ligand binding [2] [%] | GR Ser211 phosphorylation ([1]; 1 µM, 6 h (UAMC-1158: Figure S2, 4 or 24 h)) | fold lower GR-LBD affinity versus GSK866 [3] | GR transactivation in GRE-luc reporter at 10 nM [4] | GILZ/TSC22D3 gene expression [5] | IC50 ([2]; displacement of radiolabeled Dex, read-out: IC50 (GR radioligand binding)) [µM] | Ki ([2]; displacement of radiolabeled Dex, read-out: Ki (GR radioligand binding)) [µM]
C[C@@H]1C[C@H]2[C@@H]3CCC4=CC(=O)C=C[C@]4(C)[C@@]3(F)[C@@H](O)C[C@]2(C)[C@@]1(O)C(=O)CO [Dex, Dexamethasone, reference compound] | concentration-dependent increase of GR Ser211 phosphorylation | 100 |  |  |  |  |  | 
CCN(C[C@@](O)(CNC(=O)c1cnn(-c2ccc(F)cc2)c1N)C(F)(F)F)C(=O)c1c(Cl)ccc(NC(=O)CCl)c1Cl [UAMC-1217] | concentration-dependent increase of GR Ser211 phosphorylation | 92 | enhance the Ser211 phosphorylation | approx. 5 fold | significantly reduced GR transactivation to levels below transactivation observed with 10 nM of Dex | reduced transactivation effects | 0.022 | 0.011
